# Calls of active or inactive are those of the source. No cut-off for these calls is given here.
# How the values were obtained:
# Gallus gallus [1] = assay: Toxicity in sporozoite-induced Plasmodium gallinaceum infected white leghorn chicken assessed as mortality at 320 mg/kg, sc administered 72 hrs after infection measured up to 6 days; type: organism-based; set-up: dose 320 mg/kg, route subcutaneous; details: in vivo
# Gallus gallus [2] = assay: Toxicity in trophozoite-induced Plasmodium gallinaceum infected white leghorn chicken assessed as mortality at 320 mg/kg, sc administered 72 hrs after infection measured after 48 hrs; type: organism-based; set-up: dose 320 mg/kg, route subcutaneous; details: in vivo
# Staphylococcus aureus [3] = assay: Antibacterial activity against drug-resistant Staphylococcus aureus S18713 by gradient plate test; type: functional
# Gallus gallus [4] = assay: Toxicity in sporozoite-induced Plasmodium gallinaceum infected white leghorn chicken assessed as mortality at 160 mg/kg, sc administered 72 hrs after infection measured up to 6 days; type: organism-based; set-up: dose 160 mg/kg, route subcutaneous; details: in vivo
# Staphylococcus aureus [5] = assay: Antibacterial activity against Staphylococcus aureus UC-96 by gradient plate test; type: functional
# Plasmodium berghei [6] = assay: Antimalarial activity against Plasmodium berghei infected in mouse assessed as increase in mean survival days of host at 160 mg/kg, sc administered 72 hrs after infection relative to control; type: functional; details: route subcutaneous
# Plasmodium berghei [7] = assay: Antimalarial activity against trophozoite-induced Plasmodium berghei infected in mouse assessed as daily dose required to suppression of 90% parasite infection administered with diet for 6 days; type: functional
# Plasmodium gallinaceum [8] = assay: Antimalarial activity against trophozoite-induced Plasmodium gallinaceum infected in white leghorn chicken assessed as increase in mean survival days of host at 40 mg/kg, sc administered 72 hrs after infection relative to control; type: functional; details: route subcutaneous
# Plasmodium gallinaceum [9] = assay: Antimalarial activity against sporozoite-induced Plasmodium gallinaceum infected in white leghorn chicken assessed as disease cure from parasite infection at 320 mg/kg, sc administered 72 hrs after infection; type: functional, organism-based; set-up: dose 320 mg/kg
# Plasmodium gallinaceum [10] = assay: Antimalarial activity against trophozoite-induced Plasmodium gallinaceum infected in white leghorn chicken assessed as increase in mean survival days of host at 20 mg/kg, sc administered 72 hrs after infection relative to control; type: functional; details: route subcutaneous
# Plasmodium gallinaceum [11] = assay: Antimalarial activity against trophozoite-induced Plasmodium gallinaceum infected in white leghorn chicken assessed as increase in mean survival days of host at 1.25 mg/kg, sc administered 72 hrs after infection relative to control; type: functional; details: route subcutaneous
# Plasmodium gallinaceum [12] = assay: Antimalarial activity against trophozoite-induced Plasmodium gallinaceum infected in white leghorn chicken assessed as increase in mean survival days of host at 80 mg/kg, sc administered 72 hrs after infection relative to control; type: functional; details: route subcutaneous
# Plasmodium berghei [13] = assay: Antimalarial activity against Plasmodium berghei infected in mouse assessed as increase in mean survival days of host at 80 mg/kg, sc administered 72 hrs after infection relative to control; type: functional; details: route subcutaneous
# Plasmodium gallinaceum [14] = assay: Antimalarial activity against sporozoite-induced Plasmodium gallinaceum infected in white leghorn chicken assessed as increase in mean survival days of host at 20 mg/kg, sc administered 72 hrs after infection relative to control; type: functional; details: route subcutaneous
# Plasmodium gallinaceum [15] = assay: Antimalarial activity against sporozoite-induced Plasmodium gallinaceum infected in white leghorn chicken assessed as disease cure from parasite infection at 20 mg/kg, sc administered 72 hrs after infection; type: functional, organism-based; set-up: dose 20 mg/kg
# Plasmodium gallinaceum [16] = assay: Antimalarial activity against trophozoite-induced Plasmodium gallinaceum infected in white leghorn chicken assessed as increase in mean survival days of host at 5 mg/kg, sc administered 72 hrs after infection relative to control; type: functional; details: route subcutaneous
# Enterococcus faecalis = assay: Antibacterial activity against Streptococcus faecalis MGH-2 by gradient plate test; type: functional
# Plasmodium gallinaceum [17] = assay: Antimalarial activity against trophozoite-induced Plasmodium gallinaceum infected in white leghorn chicken assessed as increase in mean survival days of host at 2.5 mg/kg, sc administered 72 hrs after infection relative to control; type: functional; details: route subcutaneous
# Plasmodium berghei [18] = assay: Antimalarial activity against Plasmodium berghei infected in mouse assessed as increase in mean survival days of host at 20 mg/kg, sc administered 72 hrs after infection relative to control; type: functional; details: route subcutaneous
# Pseudomonas aeruginosa = assay: Antibacterial activity against Pseudomonas aeruginosa 28 by gradient plate test; type: functional
# Shigella sonnei = assay: Antibacterial activity against Shigella sonnei C-10 by gradient plate test; type: functional
# Gallus gallus [19] = assay: Toxicity in sporozoite-induced Plasmodium gallinaceum infected white leghorn chicken assessed as mortality at 80 mg/kg, sc administered 72 hrs after infection measured up to 6 days; type: organism-based; set-up: dose 80 mg/kg, route subcutaneous; details: in vivo
# Plasmodium gallinaceum [20] = assay: Antimalarial activity against sporozoite-induced Plasmodium gallinaceum infected in white leghorn chicken assessed as increase in mean survival days of host at 10 mg/kg, sc administered 72 hrs after infection relative to control; type: functional; details: route subcutaneous
# Plasmodium berghei [21] = assay: Antimalarial activity against Plasmodium berghei infected in mouse assessed as disease cure from parasite infection at 640 mg/kg, sc administered 72 hrs after infection; type: functional, organism-based; set-up: dose 640 mg/kg
# Plasmodium gallinaceum [22] = assay: Antimalarial activity against trophozoite-induced Plasmodium gallinaceum infected in white leghorn chicken assessed as increase in mean survival days of host at 10 mg/kg, sc administered 72 hrs after infection relative to control; type: functional; details: route subcutaneous
# Plasmodium berghei [23] = assay: Antimalarial activity against Plasmodium berghei infected in mouse assessed as disease cure from parasite infection at 160 mg/kg, sc administered 72 hrs after infection; type: functional, organism-based; set-up: dose 160 mg/kg
# Plasmodium gallinaceum [24] = assay: Antimalarial activity against sporozoite-induced Plasmodium gallinaceum infected in white leghorn chicken assessed as disease cure from parasite infection at 160 mg/kg, sc administered 72 hrs after infection; type: functional, organism-based; set-up: dose 160 mg/kg
# Plasmodium gallinaceum [25] = assay: Antimalarial activity against trophozoite-induced Plasmodium gallinaceum infected in white leghorn chicken assessed as increase in mean survival days of host at 0.63 mg/kg, sc administered 72 hrs after infection relative to control; type: functional; details: route subcutaneous
# Escherichia coli = assay: Antibacterial activity against Escherichia coli Vogel by gradient plate test; type: functional
# Plasmodium gallinaceum [26] = assay: Antimalarial activity against sporozoite-induced Plasmodium gallinaceum infected in white leghorn chicken assessed as increase in mean survival days of host at 40 mg/kg, sc administered 72 hrs after infection relative to control; type: functional; details: route subcutaneous
# Plasmodium berghei [27] = assay: Antimalarial activity against Plasmodium berghei infected in mouse assessed as increase in mean survival days of host at 10 mg/kg, sc administered 72 hrs after infection relative to control; type: functional; details: route subcutaneous
# Plasmodium gallinaceum [28] = assay: Antimalarial activity against trophozoite-induced Plasmodium gallinaceum infected in white leghorn chicken assessed as increase in mean survival days of host at 160 mg/kg, sc administered 72 hrs after infection relative to control; type: functional; details: route subcutaneous
# Plasmodium gallinaceum [29] = assay: Antimalarial activity against sporozoite-induced Plasmodium gallinaceum infected in white leghorn chicken assessed as increase in mean survival days of host at 5 mg/kg, sc administered 72 hrs after infection relative to control; type: functional; details: route subcutaneous
# Plasmodium gallinaceum [30] = assay: Antimalarial activity against sporozoite-induced Plasmodium gallinaceum infected in white leghorn chicken assessed as disease cure from parasite infection at 40 mg/kg, sc administered 72 hrs after infection; type: functional, organism-based; set-up: dose 40 mg/kg
# Mus musculus = assay: Toxicity in Plasmodium berghei infected mouse assessed as mortality at 640 mg/kg, sc administered 72 hrs after infection measured after 2 to 5 days; type: organism-based; set-up: dose 640 mg/kg, route subcutaneous; details: in vivo
# Plasmodium berghei [31] = assay: Ratio of quinine hydrochloride SD90 to compound SD90 for trophozoite-induced Plasmodium berghei infected in mouse assessed as daily dose required to suppression of 90% parasite infection administered with diet for 6 days; type: functional
# Plasmodium berghei [32] = assay: Antimalarial activity against Plasmodium berghei infected in mouse assessed as increase in mean survival days of host at 40 mg/kg, sc administered 72 hrs after infection relative to control; type: functional; details: route subcutaneous
# Plasmodium gallinaceum [33] = assay: Antimalarial activity against sporozoite-induced Plasmodium gallinaceum infected in white leghorn chicken assessed as increase in mean survival days of host at 80 mg/kg, sc administered 72 hrs after infection relative to control; type: functional; details: route subcutaneous
# Plasmodium gallinaceum [34] = assay: Antimalarial activity against trophozoite-induced Plasmodium gallinaceum infected in white leghorn chicken assessed as disease cure from parasite infection at 160 mg/kg, sc administered 72 hrs after infection; type: functional, organism-based; set-up: dose 160 mg/kg
# Plasmodium gallinaceum [35] = assay: Antimalarial activity against sporozoite-induced Plasmodium gallinaceum infected in white leghorn chicken assessed as disease cure from parasite infection at 80 mg/kg, sc administered 72 hrs after infection; type: functional, organism-based; set-up: dose 80 mg/kg
# Plasmodium berghei [36] = assay: Antimalarial activity against Plasmodium berghei infected in mouse assessed as disease cure from parasite infection at 320 mg/kg, sc administered 72 hrs after infection; type: functional, organism-based; set-up: dose 320 mg/kg
smiles,measurement,setting,value
Cc1cccc(Sc2ccc3nc(N)nc(N)c3c2)c1,Activity,Gallus gallus [1],Toxic
same,Activity,Gallus gallus [2],Toxic
same,MIC,Staphylococcus aureus [3],< 0.25 µg/mL
same,Activity,Gallus gallus [4],Toxic
same,MIC,Staphylococcus aureus [5],< 0.25 µg/mL
same,MST,Plasmodium berghei [6],12.7 days
same,SD90,Plasmodium berghei [7],6.2 mg/kg/day
same,MST,Plasmodium gallinaceum [8],6.4 days
same,Activity,Plasmodium gallinaceum [9],Active
same,MST,Plasmodium gallinaceum [10],6.2 days
same,MST,Plasmodium gallinaceum [11],0 days
same,MST,Plasmodium gallinaceum [12],7.8 days
same,MST,Plasmodium berghei [13],7.7 days
same,MST,Plasmodium gallinaceum [14],3.8 days
same,Activity,Plasmodium gallinaceum [15],Active
same,MST,Plasmodium gallinaceum [16],0 days
same,MIC,Enterococcus faecalis,< 0.25 µg/mL
same,MST,Plasmodium gallinaceum [17],0 days
same,MST,Plasmodium berghei [18],2.3 days
same,MIC,Pseudomonas aeruginosa,> 25 µg/mL
same,MIC,Shigella sonnei,1.5 µg/mL
same,Activity,Gallus gallus [19],Toxic
same,MST,Plasmodium gallinaceum [20],1.8 days
same,Activity,Plasmodium berghei [21],Active
same,MST,Plasmodium gallinaceum [22],6 days
same,Activity,Plasmodium berghei [23],Active
same,Activity,Plasmodium gallinaceum [24],Active
same,MST,Plasmodium gallinaceum [25],0 days
same,MIC,Escherichia coli,< 0.25 µg/mL
same,MST,Plasmodium gallinaceum [26],1.7 days
same,MST,Plasmodium berghei [27],2.4 days
same,MST,Plasmodium gallinaceum [28],10.7 days
same,MST,Plasmodium gallinaceum [29],0.3 days
same,Activity,Plasmodium gallinaceum [30],Active
same,Activity,Mus musculus,Toxic
same,Ratio,Plasmodium berghei [31],12
same,MST,Plasmodium berghei [32],6.7 days
same,MST,Plasmodium gallinaceum [33],4.7 days
same,Activity,Plasmodium gallinaceum [34],Active
same,Activity,Plasmodium gallinaceum [35],Active
same,Activity,Plasmodium berghei [36],Active
